Measured values from patent publication US7999009B2, “Strontium salts of sulphonic acids, a process for their preparation and pharmaceutical compositions containing them” (Les Laboratoires Servier, priority 2006, dated 2011).

Experiments:
[1] = test system: fragments of bovine cartilage; assay: Alamar blue toxicity test in the bovine cartilage culture; type: cell-based; conditions: 21 days of cultivation, whatever the dose (0.01-10 mM)
Description: (§1) The duration of the cultivation period is 21 days (culture medium changed every 2 days). A group not treated with TNFα and oncostatin M constitutes the control group. Five lots of stimulated cartilage fragments were treated with the compound of Example 1, each at a different dose: 0.01; 0.1; 1; 3 and 10 mM. 5 replications were carried out for each dose.
The treatment is moreover well tolerated by the cells for the 21 days of cultivation (toxicity test employed: Alamar blue—negative whatever the dose).

[2] = test system: fragments of bovine cartilage; assay: In vitro inhibition of bovine cartilage catabolism (cartilage fragments stimulated with TNFα and oncostatin M, 21 days); type: cell-based; conditions: for percentage inhibition of the degradation of the proteins in the cartilage: D21; for percentage inhibition of the degradation of the GAGs: D21, DMB technique
Description: The study was carried out on fragments of bovine cartilage in culture medium (96-well plate), the degradation of which is stimulated by adding TNFα and oncostatin M (Schaller, S., Henriksen, K., Hoegh-Andersen, P., Sondergaard, B. C., Sumer, E. U., Tanko, L. B., Qvist, P., Karsdal, M. A. In vitro, ex vivo, and in vivo methodological approaches for studying therapeutic targets of osteoporosis and degenerative joint diseases: how biomarkers can assist? Assay. Drug Dev. Technol. 3, 553-580 (2005).
as §1
On D19, the concentration of CTX II (fragment of type II collagen resulting from the degradation of that collagen by metalloproteases) in the culture medium is measured using an ELISA technique. That parameter is expressed in ng/ml/mg of cartilage.
On D21, the following are measured in the cartilage remaining at the end of cultivation: • the quantity of proteins, using the kit marketed by Biorad. For the groups treated with the compound of Example 1, the results of this parameter are expressed as the percentage inhibition of the degradation of the proteins in the cartilage of the untreated control group; • and the quantity of glycosaminoglycans (GAGs), using the […] (DMB). That parameter, too, is expressed as a percentage inhibition of the degradation of the GAGs evaluated in the control group after culturing for 21 days. Results

O=S(=O)([O-])CCCS(=O)(=O)[O-].[Sr+2] [Example 1, Strontium 1,3-propanedisulphonate]
toxicity test Alamar blue (tolerance by the cells) [1]: negative
IC50 ([2]; D19, ELISA, TNFα + oncostatin M stimulated cartilage, significant (p<0.001), dose-dependent, read-out: inhibition of the salting out of CTX II in the culture medium (IC50)): 3.5 mM
percentage inhibition of the degradation of the proteins in the cartilage ([2]; dose 1 mM): 22%
percentage inhibition of the degradation of the GAGs ([2]; dose 1 mM): 4%
percentage inhibition of the degradation of the proteins in the cartilage ([2]; dose 3 mM): 41%
percentage inhibition of the degradation of the GAGs ([2]; dose 3 mM): 8%
percentage inhibition of the degradation of the GAGs ([2]; dose 10 mM, **p < 0.01): 26%**
percentage inhibition of the degradation of the proteins in the cartilage ([2]; dose 10 mM, *p < 0.05): 55%*
